Species on record: Rattus norvegicus
Test: Open TG-GATES - Regimen: Single
Format: toxicity, organism-based, Sprague-Dawley
Set-up: regimen Single, gender Male, age 6 weeks
Conditions: in vivo, po, route gavage; for APTT / Bas / Eos / Fbg / Ht / Lym / MCH / MCHC / MCV / Mono / Neu / PT / Plat / RBC / Ret / WBC: tissue Blood; for KIDNEY_L / KIDNEY_R / KIDNEY_TOTAL: tissue Kidney; for LIVER: tissue Liver; for ALP / ALT / AST / BUN / CRE / Ca / Cl / DBIL / GLC / IP / K / LDH / Na / PL / RALB / TBIL / TC / TG / TP / gamma-GTP: tissue Plasma
[1] = 30 mg/kg, 3 h, dose level Middle
[2] = 30 mg/kg, 6 h, dose level Middle
[3] = 30 mg/kg, 9 h, dose level Middle
[4] = 30 mg/kg, 24 h, dose level Middle
[5] = 100 mg/kg, 3 h, dose level High
[6] = 100 mg/kg, 6 h, dose level High
[7] = 100 mg/kg, 9 h, dose level High
[8] = 100 mg/kg, 24 h, dose level High

Cc1cccc(Nc2cc(Cl)nc(SCC(=O)O)n2)c1C [PIRINIXIC ACID]
TERMINAL_BW [1]: 204.3 g
APTT [1]: 17.1 s
Bas [1]: 0%
Eos [1]: 0.4%
Fbg [1]: 275 mg/dL
Ht [1]: 39.7%
Lym [1]: 77.6%
MCH [1]: 21.5 pg
MCHC [1]: 34.3%
MCV [1]: 62.6 fL
Mono [1]: 3%
Neu [1]: 18%
PT [1]: 12.5 s
Plat [1]: 130.4 x10_4/uL
RBC [1]: 634 x10_4/ul
Ret [1]: 7.9%
WBC [1]: 74.5 x10_2/uL
KIDNEY_L [1]: 0.9 g
KIDNEY_R [1]: 0.9 g
KIDNEY_TOTAL [1]: 1.8 g
LIVER [1]: 8.9 g
ALP [1]: 1689.8 IU/L
ALT [1]: 49.2 IU/L
AST [1]: 74 IU/L
BUN [1]: 9 mg/dL
CRE [1]: 0.1 mg/dL
Ca [1]: 11 mg/dL
Cl [1]: 103.8 meq/L
DBIL [1]: 0.088 mg/dL
GLC [1]: 184.2 mg/dL
IP [1]: 10.1 mg/dL
K [1]: 3.9 meq/L
LDH [1]: 65.6 IU/L
Na [1]: 139.8 meq/L
PL [1]: 172.4 mg/dL
RALB [1]: 2.7 g/dL
TBIL [1]: 0.052 mg/dL
TC [1]: 79 mg/dL
TG [1]: 251.8 mg/dL
TP [1]: 5.8 g/dL
gamma-GTP [1]: 1 IU/L
TERMINAL_BW [2]: 205.1 g
APTT [2]: 16.2 s
Bas [2]: 0%
Eos [2]: 1%
Fbg [2]: 274.6 mg/dL
Ht [2]: 40.3%
Lym [2]: 70.8%
MCH [2]: 20.8 pg
MCHC [2]: 34.1%
MCV [2]: 61 fL
Mono [2]: 2.4%
Neu [2]: 25.4%
PT [2]: 12.4 s
Plat [2]: 117.5 x10_4/uL
RBC [2]: 661.2 x10_4/ul
Ret [2]: 7.5%
WBC [2]: 71.7 x10_2/uL
KIDNEY_L [2]: 0.9 g
KIDNEY_R [2]: 0.9 g
KIDNEY_TOTAL [2]: 1.7 g
LIVER [2]: 8.2 g
ALP [2]: 1624.2 IU/L
ALT [2]: 46.6 IU/L
AST [2]: 77.8 IU/L
BUN [2]: 8.8 mg/dL
CRE [2]: 0.2 mg/dL
Ca [2]: 10.7 mg/dL
Cl [2]: 105.4 meq/L
DBIL [2]: 0.036 mg/dL
GLC [2]: 177.8 mg/dL
IP [2]: 10.7 mg/dL
K [2]: 4.3 meq/L
LDH [2]: 59.8 IU/L
Na [2]: 139.6 meq/L
PL [2]: 149.4 mg/dL
RALB [2]: 2.6 g/dL
TBIL [2]: 0.046 mg/dL
TC [2]: 76.4 mg/dL
TG [2]: 115.4 mg/dL
TP [2]: 5.4 g/dL
gamma-GTP [2]: 1.4 IU/L
TERMINAL_BW [3]: 204.7 g
APTT [3]: 15.6 s
Bas [3]: 0%
Eos [3]: 0.6%
Fbg [3]: 267.4 mg/dL
Ht [3]: 38.8%
Lym [3]: 78.8%
MCH [3]: 21.1 pg
MCHC [3]: 34.3%
MCV [3]: 61.4 fL
Mono [3]: 2%
Neu [3]: 18%
PT [3]: 12.3 s
Plat [3]: 121.4 x10_4/uL
RBC [3]: 631.6 x10_4/ul
Ret [3]: 7.8%
WBC [3]: 66.7 x10_2/uL
KIDNEY_L [3]: 0.9 g
KIDNEY_R [3]: 0.8 g
KIDNEY_TOTAL [3]: 1.7 g
LIVER [3]: 7.9 g
ALP [3]: 1566.2 IU/L
ALT [3]: 35.8 IU/L
AST [3]: 65.8 IU/L
BUN [3]: 9.6 mg/dL
CRE [3]: 0.2 mg/dL
Ca [3]: 10.5 mg/dL
Cl [3]: 104.2 meq/L
DBIL [3]: 0.026 mg/dL
GLC [3]: 185.8 mg/dL
IP [3]: 11.1 mg/dL
K [3]: 3.9 meq/L
LDH [3]: 61.6 IU/L
Na [3]: 140.6 meq/L
PL [3]: 122.8 mg/dL
RALB [3]: 2.6 g/dL
TBIL [3]: 0.038 mg/dL
TC [3]: 67.8 mg/dL
TG [3]: 68.8 mg/dL
TP [3]: 5.3 g/dL
gamma-GTP [3]: 1.4 IU/L
TERMINAL_BW [4]: 211.1 g
APTT [4]: 16.1 s
Bas [4]: 0%
Eos [4]: 1.2%
Fbg [4]: 216.4 mg/dL
Ht [4]: 39.1%
Lym [4]: 76.2%
MCH [4]: 21.4 pg
MCHC [4]: 34.5%
MCV [4]: 61.9 fL
Mono [4]: 3%
Neu [4]: 19.6%
PT [4]: 13 s
Plat [4]: 110.1 x10_4/uL
RBC [4]: 632.4 x10_4/ul
Ret [4]: 6.8%
WBC [4]: 75.4 x10_2/uL
KIDNEY_L [4]: 0.9 g
KIDNEY_R [4]: 0.9 g
KIDNEY_TOTAL [4]: 1.8 g
LIVER [4]: 10.2 g
ALP [4]: 1775.4 IU/L
ALT [4]: 51.8 IU/L
AST [4]: 73.4 IU/L
BUN [4]: 14.4 mg/dL
CRE [4]: 0.2 mg/dL
Ca [4]: 10.7 mg/dL
Cl [4]: 104 meq/L
DBIL [4]: 0.018 mg/dL
GLC [4]: 189.6 mg/dL
IP [4]: 8.6 mg/dL
K [4]: 4 meq/L
LDH [4]: 58 IU/L
Na [4]: 141.6 meq/L
PL [4]: 111.4 mg/dL
RALB [4]: 2.6 g/dL
TBIL [4]: 0.03 mg/dL
TC [4]: 59.2 mg/dL
TG [4]: 37.6 mg/dL
TP [4]: 5.3 g/dL
gamma-GTP [4]: 1.2 IU/L
TERMINAL_BW [5]: 203.1 g
APTT [5]: 16 s
Bas [5]: 0%
Eos [5]: 0.8%
Fbg [5]: 246.6 mg/dL
Ht [5]: 38.5%
Lym [5]: 76.8%
MCH [5]: 21.8 pg
MCHC [5]: 34.4%
MCV [5]: 63.3 fL
Mono [5]: 3%
Neu [5]: 18.2%
PT [5]: 12.6 s
Plat [5]: 113.6 x10_4/uL
RBC [5]: 607.8 x10_4/ul
Ret [5]: 7.7%
WBC [5]: 82.7 x10_2/uL
KIDNEY_L [5]: 0.9 g
KIDNEY_R [5]: 0.8 g
KIDNEY_TOTAL [5]: 1.7 g
LIVER [5]: 8.8 g
ALP [5]: 1788.2 IU/L
ALT [5]: 54.6 IU/L
AST [5]: 82.6 IU/L
BUN [5]: 11 mg/dL
CRE [5]: 0.2 mg/dL
Ca [5]: 11 mg/dL
Cl [5]: 102.2 meq/L
DBIL [5]: 0.046 mg/dL
GLC [5]: 179.8 mg/dL
IP [5]: 10.4 mg/dL
K [5]: 4 meq/L
LDH [5]: 69.8 IU/L
Na [5]: 139.2 meq/L
PL [5]: 156.6 mg/dL
RALB [5]: 2.5 g/dL
TBIL [5]: 0.058 mg/dL
TC [5]: 80.8 mg/dL
TG [5]: 120.2 mg/dL
TP [5]: 5.4 g/dL
gamma-GTP [5]: 1 IU/L
TERMINAL_BW [6]: 202.6 g
APTT [6]: 16 s
Bas [6]: 0%
Eos [6]: 0.6%
Fbg [6]: 267.4 mg/dL
Ht [6]: 39.4%
Lym [6]: 74%
MCH [6]: 21.5 pg
MCHC [6]: 34.3%
MCV [6]: 62.6 fL
Mono [6]: 2.4%
Neu [6]: 22.2%
PT [6]: 12.1 s
Plat [6]: 116.2 x10_4/uL
RBC [6]: 628.6 x10_4/ul
Ret [6]: 7.5%
WBC [6]: 72.4 x10_2/uL
KIDNEY_L [6]: 0.9 g
KIDNEY_R [6]: 0.9 g
KIDNEY_TOTAL [6]: 1.7 g
LIVER [6]: 7.8 g
ALP [6]: 1738.4 IU/L
ALT [6]: 52 IU/L
AST [6]: 81.4 IU/L
BUN [6]: 9.4 mg/dL
CRE [6]: 0.2 mg/dL
Ca [6]: 10.6 mg/dL
Cl [6]: 104.6 meq/L
DBIL [6]: 0.036 mg/dL
GLC [6]: 178.6 mg/dL
IP [6]: 10.9 mg/dL
K [6]: 4.3 meq/L
LDH [6]: 54.6 IU/L
Na [6]: 139.4 meq/L
PL [6]: 152.4 mg/dL
RALB [6]: 2.5 g/dL
TBIL [6]: 0.052 mg/dL
TC [6]: 80.4 mg/dL
TG [6]: 105.4 mg/dL
TP [6]: 5.3 g/dL
gamma-GTP [6]: 1.6 IU/L
TERMINAL_BW [7]: 203.7 g
APTT [7]: 16.5 s
Bas [7]: 0%
Eos [7]: 0.4%
Fbg [7]: 248 mg/dL
Ht [7]: 40%
Lym [7]: 79.6%
MCH [7]: 21.8 pg
MCHC [7]: 34.3%
MCV [7]: 63.6 fL
Mono [7]: 1.8%
Neu [7]: 17.8%
PT [7]: 12.4 s
Plat [7]: 109.8 x10_4/uL
RBC [7]: 628.8 x10_4/ul
Ret [7]: 8.1%
WBC [7]: 76 x10_2/uL
KIDNEY_L [7]: 0.9 g
KIDNEY_R [7]: 0.9 g
KIDNEY_TOTAL [7]: 1.8 g
LIVER [7]: 7.8 g
ALP [7]: 2137.8 IU/L
ALT [7]: 46 IU/L
AST [7]: 74.2 IU/L
BUN [7]: 9.6 mg/dL
CRE [7]: 0.2 mg/dL
Ca [7]: 10.5 mg/dL
Cl [7]: 104.4 meq/L
DBIL [7]: 0.028 mg/dL
GLC [7]: 192 mg/dL
IP [7]: 11 mg/dL
K [7]: 4 meq/L
LDH [7]: 58.8 IU/L
Na [7]: 140.8 meq/L
PL [7]: 115.2 mg/dL
RALB [7]: 2.6 g/dL
TBIL [7]: 0.04 mg/dL
TC [7]: 59.4 mg/dL
TG [7]: 85.2 mg/dL
TP [7]: 5.4 g/dL
gamma-GTP [7]: 1.2 IU/L
TERMINAL_BW [8]: 210.5 g
APTT [8]: 16.2 s
Bas [8]: 0%
Eos [8]: 1%
Fbg [8]: 206.8 mg/dL
Ht [8]: 38.4%
Lym [8]: 76%
MCH [8]: 21.8 pg
MCHC [8]: 34.5%
MCV [8]: 63.3 fL
Mono [8]: 2.6%
Neu [8]: 20.2%
PT [8]: 13.1 s
Plat [8]: 109.5 x10_4/uL
RBC [8]: 607 x10_4/ul
Ret [8]: 7.2%
WBC [8]: 74.1 x10_2/uL
KIDNEY_L [8]: 0.9 g
KIDNEY_R [8]: 1 g
KIDNEY_TOTAL [8]: 1.9 g
LIVER [8]: 10.5 g
ALP [8]: 1720.8 IU/L
ALT [8]: 53.4 IU/L
AST [8]: 77.4 IU/L
BUN [8]: 14.2 mg/dL
CRE [8]: 0.2 mg/dL
Ca [8]: 10.7 mg/dL
Cl [8]: 104.2 meq/L
DBIL [8]: 0.018 mg/dL
GLC [8]: 195.4 mg/dL
IP [8]: 8.6 mg/dL
K [8]: 4 meq/L
LDH [8]: 60.4 IU/L
Na [8]: 142.2 meq/L
PL [8]: 96.4 mg/dL
RALB [8]: 2.6 g/dL
TBIL [8]: 0.026 mg/dL
TC [8]: 50.2 mg/dL
TG [8]: 31.4 mg/dL
TP [8]: 5.2 g/dL
gamma-GTP [8]: 1.2 IU/L
